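All cell lines were grown in 96-well plates and treated with compound for 48 hours. GI50 is the concentration that inhibits growth by half. TGI: concentration producing complete growth inhibition.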
Legend:
Test in all cases: NCI tumour cell line growth inhibition, 48 h
MDA-N = system: MDA-N
BT-549 breast = system: BT-549 breast
HOP-18 NSCLC = system: HOP-18 NSCLC
RXF-631 renal = system: RXF-631 renal
LXFL 529 NSCLC = system: LXFL 529 NSCLC
DMS 114 small cell lung = system: DMS 114 small cell lung
M19-MEL melanoma = system: M19-MEL melanoma
DMS 273 small cell lung = system: DMS 273 small cell lung
KM20L2 colon = system: KM20L2 colon

Structure (SMILES)	TGI (BT-549 breast) [µM]	TGI (LXFL 529 NSCLC) [µM]	TGI (M19-MEL melanoma) [µM]	TGI (KM20L2 colon) [µM]	GI50 (BT-549 breast) [µM]	other results
COc1ccc(NCc2c(O)ccc3ccccc23)cc1	43.5	–	–	–	–	TGI (MDA-N): > 100 µM
N#CNc1nc(C(=O)Nc2ccc(Cl)cc2)cc(-c2ccccc2)n1	–	> 100	> 100	> 100	–	TGI (HOP-18 NSCLC): > 100 µM; TGI (RXF-631 renal): > 100 µM; TGI (DMS 114 small cell lung): > 100 µM; TGI (DMS 273 small cell lung): > 100 µM
COc1ccc(Cn2cc3c(c2-c2ccccc2)CCc2cncnc2-3)cc1	14.7	–	–	–	4.1	–
CN(C)CCC(=O)NCc1c2nc3ccccc3nc2n2ccccc12	60.8	–	–	–	23.3	–
CC(=O)OC1C/C(C)=C/[C@H](O)CC(C)/C=C/[C@@]2(C)CCC(C(C)(C)O)C12 (stereo partly specified)	–	> 100	> 100	> 100	–	TGI (HOP-18 NSCLC): > 100 µM; TGI (RXF-631 renal): > 100 µM; TGI (DMS 114 small cell lung): > 100 µM; TGI (DMS 273 small cell lung): > 100 µM
O=C(O)C1=C(Cl)c2ccccc2S1(=O)=O	–	> 100	> 100	> 100	–	TGI (RXF-631 renal): > 100 µM; TGI (DMS 114 small cell lung): > 100 µM
Cc1cccc(NC(=O)Cc2nc3ccccc3s2)c1C	–	> 100	> 100	> 100	–	TGI (RXF-631 renal): > 100 µM; TGI (DMS 114 small cell lung): > 100 µM; TGI (DMS 273 small cell lung): > 100 µM
Cc1ccc(C(=O)Nc2ccccc2C(=O)N/N=C(\c2ccccc2)c2ccccn2)cc1	> 100	–	–	–	0.517	–
COc1ccc(-c2cc3nccn3c(Nc3ncccc3C(N)=O)n2)cc1OC	> 100	–	–	–	0.886	–
C=C(CN(CCN1CCOCC1)CC(=C)c1ccc(C(=O)Nc2ccccc2N)cc1)c1ccc(C(=O)Nc2ccccc2N)cc1	21.2	–	–	–	8.56	–
CN(/C(=N\O)c1ccccc1)c1ccccc1	–	> 100	> 100	41.5	–	TGI (DMS 114 small cell lung): 86.1 µM; TGI (DMS 273 small cell lung): 50.7 µM
O=C(Nc1cc([N+](=O)[O-])cc([N+](=O)[O-])c1)OC1C2CCC1C1OC1C2 (stereo unspecified)	–	–	> 50	> 50	–	TGI (DMS 114 small cell lung): > 50 µM
CCOC(=O)c1cn2ncnc(Oc3ccc(NC(=O)NCCN(CC)CC)c(Cl)c3)c2c1C	19.5	–	–	–	4.96	–
CC(C)[C@H](O)C(=O)N[C@H]1Cc2ccc3c(c2)[C@]24C5=C(N=C(O5)[C@H](C(C)C)NC1=O)c1nc(Cl)c(o1)-c1c(Cl)[nH]c5cccc(c15)-c1cccc2c1N[C@H]4O3	–	–	–	–	–	TGI (MDA-N): 0.00429 µM
CN(C)C(=S)/N=c1\ssc(=S)n1Cc1ccccn1	–	> 100	> 100	–	–	TGI (HOP-18 NSCLC): > 100 µM; TGI (RXF-631 renal): > 100 µM
COc1ccc(CC(C#N)c2cc(OC)c(OC)c(OC)c2)cc1 (stereo unspecified)	> 100	> 100	> 100	0.195	–	TGI (DMS 273 small cell lung): 0.405 µM
COc1cccc2cc(N(C)c3nc(C)nc4ccsc34)ccc12	1.3	–	–	–	< 0.01	–
CCCCCCCCCCC(CN(CC)CC)C(O)c1ccccc1 (stereo unspecified)	4.21	–	–	–	2.02	–
O=C(Cc1nc2ccccc2s1)C(=O)Nc1ccc(Cl)cc1Cl	–	> 100	> 100	> 100	–	TGI (RXF-631 renal): > 100 µM; TGI (DMS 273 small cell lung): > 100 µM

Structure (SMILES)	TGI (BT-549 breast) [µM]	TGI (LXFL 529 NSCLC) [µM]	TGI (M19-MEL melanoma) [µM]	TGI (KM20L2 colon) [µM]	GI50 (BT-549 breast) [µM]	other results
O=C(Nn1c2c(sc1=NC1CC1)C(=O)c1ccccc1C2=O)c1cc2ccc1CCc1ccc(cc1)CC2	2.91	–	–	–	1.5	–
O=C(O)CCc1nc(-c2ccccc2)c(-c2ccccc2)o1	> 100	–	–	–	–	TGI (MDA-N): > 100 µM
COc1cc(C(=O)/C=C/c2c(-c3cccs3)nc3ccccn23)cc(OC)c1OC	5.55	–	–	–	1.86	–
N=C(N)Cn1cnc2ccccc21	–	> 100	> 100	> 100	–	TGI (HOP-18 NSCLC): > 100 µM; TGI (DMS 114 small cell lung): > 100 µM
CC(=O)[CH-]C(=O)c1ccccc1.CC(=O)[CH-]C(=O)c1ccccc1.CC12CC3(C)CC(C)(C1)CC([O-])(C2)C3.CC[O-].[Ti+4]	–	–	–	> 100	–	GI50 (HOP-18 NSCLC): 37.4 µM; TGI (HOP-18 NSCLC): > 100 µM; GI50 (DMS 273 small cell lung): 33.4 µM; TGI (DMS 273 small cell lung): > 100 µM; GI50 (KM20L2 colon): 35.2 µM
O/N=C1/C(=C/c2ccc(Cl)cc2)CCCC1C(NO)c1ccc(Cl)cc1 (stereo unspecified)	–	> 100	54.7	36.6	–	TGI (HOP-18 NSCLC): 55.1 µM; TGI (RXF-631 renal): 41 µM; TGI (DMS 114 small cell lung): 81.8 µM; TGI (DMS 273 small cell lung): 41.2 µM
C[n+]1ccc2[nH]c3ccccc3c2c1	–	> 100	> 100	> 100	–	TGI (HOP-18 NSCLC): > 100 µM; TGI (DMS 273 small cell lung): > 100 µM
Cc1[nH]ccc2cc3nc4ccccc4c3cc12	13.3	–	–	–	2.74	–
Oc1oc(-c2ccccc2)nc1/C=C1/C=NN=N1	–	–	–	–	–	TGI (MDA-N): > 100 µM
CCN1CCN(c2cc(C)nc(NCc3cc(Nc4ccnc5cc(Cl)ccc45)ccc3F)n2)CC1	21.8	–	–	–	5.36	–
CCN1CCN(c2nc(C)cc(N(CCCNc3ccnc4cc(Cl)ccc34)Cc3ccco3)n2)CC1	5.99	–	–	–	2.03	–
Cc1sc2c(c1C)C(c1ccc(Cl)cc1)=N[C@@H](CC(=O)Nc1ccc(O)cc1)c1nnc(C)n1-2	24.2	–	–	–	4.17	–
CC(C)c1ccc(O)c(O)c(=O)c1 (tested in a mixture with another compound)	98.9	–	–	–	–	TGI (MDA-N): > 100 µM
Cn1c(=O)c2[nH]cnc2n(CC(=O)O)c1=O	–	> 100	> 100	> 100	–	TGI (RXF-631 renal): > 100 µM; TGI (DMS 114 small cell lung): > 100 µM; TGI (DMS 273 small cell lung): > 100 µM
O=C1C(Cl)=C(Nc2ccc3c(c2NC2=C(Cl)C(=O)c4ccccc4C2=O)C(=O)c2ccccc2C3=O)C(=O)c2ccccc21	2.83	–	–	–	1.36	–
CCC[CH2][Sn]1([CH2]CCC)[O]CC([CH2][Sn]([c]2ccccc2)([c]2ccccc2)[c]2ccccc2)[O]1 (stereo unspecified)	–	–	21.2	–	–	GI50 (HOP-18 NSCLC): 12.7 µM; TGI (HOP-18 NSCLC): 25.2 µM; GI50 (RXF-631 renal): 10.7 µM; TGI (RXF-631 renal): 30.5 µM; GI50 (DMS 114 small cell lung): 3.18 µM; TGI (DMS 114 small cell lung): 13.5 µM; GI50 (M19-MEL melanoma): 8.82 µM
CN(Cc1ccccc1)c1nc(=[N+](C)C)ss1	–	> 100	> 100	> 100	–	TGI (HOP-18 NSCLC): > 100 µM; TGI (RXF-631 renal): > 100 µM; TGI (DMS 114 small cell lung): > 100 µM; TGI (DMS 273 small cell lung): > 100 µM
CC1(C)CC(O)CCCCCCOc2c(CN)cccc2NC(=O)c2nc(cnc2N)-c2ccc(cc2)S1(=O)=O (stereo unspecified)	2.85	–	–	–	1.25	–
